Measured values reported in patent publication US10058544B2, “(S)-N-(3-(6-isopropoxypyridin-3-yl)-1H-indazol-5-yl)-1-(2-(4-(4-(1-methyl-1H-1,2,4-triazol-3-yl)phenyl)-3,6-dihydropyridin-1(2H)-yl)-2-oxoethyl)-3-(methylthio)pyrrolidine-3-carboxamide compositions for pharmaceutical preparations” (Merck Sharp & Dohme Corp., priority 2014, dated 2018).
Structures can show the parent of a compound that is named as a salt.

What was measured:
[1] = Physical form composition of active ingredient in tablets prepared using roller compaction; type: physicochemical
Description: (S)—N-(3-(6-isopropoxypyridin-3-yl)-1H-indazol-5-yl)-1-(2-(4-(4-(1-methyl-1H-1,2,4-triazol-3-yl)phenyl)-3,6-dihydropyridin-1(2H)-yl)-2-oxoethyl)-3-(methylthio)pyrrolidine-3-carboxamide crystalline form 1 HCl was subjected to roller compaction in order to create a granular composition for subsequent use in preparing tablets of (S)—N-(3-(6-isopropoxypyridin-3-yl)-1H-indazol-5-yl)-1-(2-(4-(4-(1-methyl-1H-1,2,4-triazol-3-yl)phenyl)-3,6-dihydropyridin-1(2H)-yl)-2-oxoethyl)-3-(methylthio)pyrrolidine-3-carboxamide crystalline form 1 HCl.
Three tablets (RC-1, RC-2 and RC-3) having the following amounts (weight %) of ingredients were prepared using roller compaction.
The following procedure was followed: • 1. Blend colloidal silicon dioxide and (S)—N-(3-(6-isopropoxypyridin-3-yl)-1H-indazol-5-yl)-1-(2-(4-(4-(1-methyl-1H-1,2,4-triazol-3-yl)phenyl)-3,6-dihydropyridin-1(2H)-yl)-2-oxoethyl)-3-(methylthio)pyrrolidine-3-carboxamide crystalline form 1 HCl in a blender. • 2. Delump the blend using a screen. • 3. Blend lactose monohydrate, microcrystalline cellulose (Avicel 102), and disintegrant (croscarmellose sodium or crospovidone) with the delumped materials from step 2 using a blender. • 4. Add prescreened magnesium stearate lubricant to the blend of step 3 and blend. • 5. Roller compact the blend resulting from step 4 • 6. Screen the roller compacted ribbons through a mesh and add the resulting milled granules to a suitable bin. • 7. Add prescreened extragranular magnesium stearate lubricant to the bin and blend with the milled granules. • 8. Compress the final lubricated blend resulting from step 7 using a suitable rotary tablet press.
(§1) “LOD” refers to “limit of detection” and “<LOD” means the amount of indicated material, if any, was not detectable.

[2] = Physical form composition of active ingredient in tablets prepared using wet granulation; type: physicochemical
Experimental: Wet granulation of (S)—N-(3-(6-isopropoxypyridin-3-yl)-1H-indazol-5-yl)-1-(2-(4-(4-(1-methyl-1H-1,2,4-triazol-3-yl)phenyl)-3,6-dihydropyridin-1(2H)-yl)-2-oxoethyl)-3-(methylthio)pyrrolidine-3-carboxamide crystalline form 1 HCl was achieved using a high shear granulator. […] was alternatively achieved using a fluidized bed procedure.
Two tablets (1a and 1b) having the following amounts (weight %) of ingredients were prepared using wet granulation.
The following procedure was followed: • 1. Prepare a 20% binder solution by adding purified water and polyvinyl pyrrolidone K30 to a mixing vessel and stir until completely dissolved. • 2. Add lactose, microcrystalline cellulose (Avicel 102), (S)—N-(3-(6-isopropoxypyridin-3-yl)-1H-indazol-5-yl)-1-(2-(4-(4-(1-methyl-1H-1,2,4-triazol-3-yl)phenyl)-3,6-dihydropyridin-1(2H)-yl)-2-oxoethyl)-3-(methylthio)pyrrolidine-3-carboxamide crystalline form 1 HCl and a disintegrant (croscarmellose sodium or crospovidone) to a high shear granulator. • 3. Dry mix the ingredients using an impeller and chopper. • 4. Add the binder solution prepared in step 1 to the high shear granulator using a peristaltic pump and flexible tubing. • 5. Spray the binder solution to form wet granules. Additional mixing without spraying of the binder solution (also known as wet massing) may be used. • 6. Pass the wet granulation through a screen. • 7. Dry the granules using a tray dryer and dry heat. • 8. Pass the dried granules through a screen and add to a bin. • 9. Add extragranular disintegrant (croscarmellose sodium or crospovidone) to the materials in step 8 and blend. • 10. Add prescreened magnesium stearate lubricant to the bin and blend. • 11. Compress the lubricated blend resulting from step 10 using a suitable rotary tablet press. Fluidized Bed Granulation: • 1. Prepare a 20% binder solution by adding purified water and PVP K30 to a mixing vessel and stir until completely dissolved. • 2. Add lactose monohydrate, microcrystalline cellulose, (S)—N-(3-(6-isopropoxypyridin-3-yl)-1H-indazol-5-yl)-1-(2-(4-(4-(1-methyl-1H-1,2,4-triazol-3-yl)phenyl)-3,6-dihydropyridin-1(2H)-yl)-2-oxoethyl)-3-(methylthio)pyrrolidine-3-carboxamide crystalline form 1 HCl and croscarmellose sodium or crospovidone disintegrant to a fluid bed to form a mixture. • 3. Pre-heat the materials of step 2 using fluid air until the target bed temperature reaches 55°-60° C. • 4. Spray the binder solution prepared in step 1 onto the mixture resulting from step 2 to form wet granules. • 5. Fluidize and dry the wet granules resulting from step 4. • 6. Pass the dried granules through a screen and add to a bin • 7. Add extragranular croscarmellose sodium or crospovidone disintegrant to the dried granules and blend. • 8. Add prescreened magnesium stearate lubricant to the blend resulting from step 7 and blend. • 9. Compress the final lubricated blend using a suitable rotary tablet press.
as §1

[3] = share of total active ingredient
[4] = wet granulation tablets, <LOD = not detectable
[5] = wet granulation tablets, share of total active ingredient

For `CS[C@@]1(C(=O)Nc2ccc3[nH]nc(-c4ccc(OC(C)C)nc4)c3c2)CCN(CC(=O)N2CC=C(c3ccc(-c4ncn(C)n4)cc3)CC2)C1` [F-1 HCl, (S)—N-(3-(6-isopropoxypyridin-3-yl)-1H-indazol-5-yl)-1-(2-(4-(4-(1-methyl-1H-1,2,4-triazol-3-yl)phenyl)-3,6-dihydropyridin-1(2H)-yl)-2-oxoethyl)-3-(methylthio)pyrrolidine-3-carboxamide crystalline form 1 HCl], the “F-1 FB (crystalline form 1 free base) amount” value ([1]; <LOD = not detectable) was “<LOD”, the “Am FB (amorphous free base) amount” value [1, 3] was “<LOD” and the “Am HCl (amorphous HCl) amount” value [1, 3] was 7%. The “F-1 HCl (crystalline form 1 HCl) amount” value [1, 3] was 92%, the “disproportionation of crystalline form 1 HCl” value ([2]; wet granulation processing (high shear or fluidized bed)) was “no disproportionation” and the “Am FB (amorphous free base) amount” value [2, 4] was “LOD”. For the same molecule, the “F-1 FB (crystalline form 1 free base) amount” value [2, 4] was “LOD”, the “Am HCl (amorphous HCl) amount” value [2, 5] was 7% and the “F-1 HCl (crystalline form 1 HCl) amount” value [2, 5] was 92%.
